Data on 15 compounds can be found in paper PMC11328599, “Crystal structure of dihydroneopterin aldolase from Mycobacterium tuberculosis associated with 8-mercaptoguanine, and development of novel S8-functionalized analogues as inhibitors: Synthesis, enzyme inhibition, in vitro toxicity and antitubercular activity” (Journal of Enzyme Inhibition and Medicinal Chemistry, 2024).

Each structure is given as a SMILES string. Values after ≈ are worked out from the molar mass of the structure shown. Values joined by “and” are separate entries in the source; they are usually repeats but may differ in a detail not shown here. Equal values may be shown once. Read-outs that look alike come from different tables or passages of the source.

The target in one data set is T1, MtFolB (Mycobacterium tuberculosis, UniProt P9WNC5).
T1 construct: made in house
In words: Mode of inhibition and inhibition constants on MtFolB aldolase activity (Lineweaver-Burk). It is filed as biochemical. Conditions: towards substrate DHNP; for Ki: read-out: Kis DHNP. The method, then:
The mode of inhibition and the inhibition constants (Ki and/or Kis) were defined for the compounds 3a-e. There are three categories for the inhibition mode: competitive, where inhibitor and substrate binding are mutually exclusive; non-competitive, if the inhibitor can bind to both the free enzyme and the enzyme-substrate complex; or uncompetitive, when the inhibitor binds only to the enzyme-substrate complex. For each compound, 3 curves were performed with fixed-varied inhibitor concentration and varying the DHNP concentration until saturation of enzyme activity. For the compound 3a the fixed-varied concentrations were 0.2 μM, 0.5 μM and 0.8 μM (varying DHNP 0.5 – 10 μM). For the compound 3b the fixed-varied concentrations were 0.1 µM (varying DHNP 0.2 – 10 µM); 0.3 μM (varying DHNP 0.5 – 10 μM) and 0.6 μM (varying DHNP 0.5 – 15 μM). For the compound 3c the fixed-varied concentrations were 0.3 μM, 0.6 μM and 0.9 μM (varying DHNP 0.5 – 10 μM). For the compound 3d the fixed-varied concentrations were 0.5 μM, 1 μM (varying DHNP 0.5 – 10 μM) and 2.5 μM (varying DHNP 1 – 10 μM). For the compound 3e the fixed-varied concentrations were 1.4 µM, 3.5 µM (varying DHNP 0.5 – 10 µM) and 7 µM (varying DHNP 1 – 10 µM). Furthermore, we performed a control experiment with 10% DMSO in the absence of inhibitors varying the DHNP concentration until saturation (0.2 – 10 µM). The straight-line patterns obtained were used to define the mode of inhibition. The diagnostic signature of a competitive inhibitor is a set of lines that intersect on the y-axis, for non-competitive inhibitors the pattern of intersection is to the left of the y-axis and for uncompetitive inhibitors the lines are parallel to each other. The inhibition constants were calculated using Equation (2) for competitive inhibitors or Equation (3) for non-competitive inhibitors, where [I] is the inhibitor concentration, [S] is the substrate concentration, KM is the Michaelis-Menten constant, Vmax is the maximum velocity, Kis is the inhibition constant for the enzyme-substrate complex, and Kii is the inhibition constant for the enzyme-substrate-inhibitor complex. (2) 1/v0=KM/Vmax(1+[I]/Kis)1/[S]+1/Vmax (3) 1/v0=KM/Vmax(1+[I]/Kis)1/[S]+1/Vmax(1+[I]/Kii)

For data set [1], the system named is M. tuberculosis H37Rv strain. In words: Minimum inhibitory concentration, resazurin reduction microplate assay (REMA). Conditions: Mycobacterium tuberculosis. It is filed as cell-based. For orientation: Resazurin is reduced to fluorescent resorufin, in cell work by metabolically active cells.
A short description of a further data set: in vitro. It is filed as cell-based. Conditions: % of cell viability ± SEM. The method, then:
(§1) Cell viability assays in the presence of compound 3e were performed in both Vero (BCRJ code 0245) and HepG2 (BCRJ code 0291) cells using MTT (3-[4,5-dimethylthiazol-2-yl]-2,5 diphenyl tetrazolium bromide)[21] and neutral red uptake (NRU)[22] methods. Both cell lines were grown in Dulbecco’s Modified Eagle Medium (DMEM-Gibco, Grand Island, NY, USA) supplemented with 10% or 20% inactivated foetal bovine serum (FBS- Invitrogen) for Vero and HepG2, respectively, 1% penicillin (Gibco) and streptomycin (Gibco), and 0.1% fungizone (Gibco). The experiments were performed in 96-well plates. First, cells were seeded at 6 x 10^3 (Vero) or 7 x 10^3/well (HepG2) and incubated overnight at 37 °C under a 5% CO2 atmosphere. Then, the medium was removed and replaced with fresh medium containing the compound at a final concentration of 75 µM, 87.5 µM, or 100 µM with DMSO at a final concentration of 0.8%. Cells were incubated during 72 h at 37 °C under a 5% CO2 atmosphere. For the MTT assay, the medium was removed after the incubation and replaced with MTT reagent (Sigma-Aldrich) at 5 mg/mL, and then the cells were incubated for 4 h. DMSO was used to solubilise formazan crystals. The absorbance was measured at 570 nm using microplate reader (EZ Read 400 microplate reader, Biochrom, Cambridge, UK). Precipitated purple formazan crystals were directly proportional to the number of live cells with mitochondrial metabolism. For the NRU assay, after the incubation with the compound, the media was removed and 200 µL of neutral red dye solution (Sigma-Aldrich) at 25 µg/mL prepared in serum-free medium was added to each well. The plate was then incubated for 3 h at 37 °C under 5% CO2. After this time, cells were washed twice with PBS, followed by incubation with 100 μL of a desorb solution (ethanol/acetic acid/water, […]) for 30 min, with gentle shaking to extract neutral red dye from the viable cells. The absorbance was measured at 562 nm using microplate reader (EZ Read 400 microplate reader, Biochrom, Cambridge, UK). Treated control wells (0.8% DMSO) were used as references for maximum cell viability (100%). Three independent experiments were performed, and the data were expressed as the means of cell viability ± the standard error of the means. Statistical analysis was performed using one-way ANOVA analysis of variance followed by Dunett’s Multiple Comparison Test post-test using GraphPad Prism 9.0.0 (San Diego, CA, USA).

For a further data set, the system named is HepG2 cells. In words: in vitro. It is filed as cell-based. Conditions: for % of cell viability ± SEM: human, 72 h. The method, then: as §1
The subject of the next data set is Vero cells. In words: in vitro. It is filed as cell-based. The conditions noted are these: for % of cell viability ± SEM: African green monkey, 72 h. The method, then: as §1
A further data set in a line: physchem. It is filed as physicochemical. Conditions: 25 °C, thermodynamic from solid. The method, then:
The solubility of the compound 3e was evaluated under three pH conditions: pH 1.2 (HCl 0.1 M); pH 7.4 (PBS 1X); and pH 9.1 (NH4HCO3 0.1 M). For this assay, we prepared a suspension of compound 3e at 1 mg/mL in each buffer solution by vortexing it for 1 min. Then, the suspension was kept under constant shaking for 4 h at 25 °C. Subsequently, the suspension was centrifuged at 13,000 rpm for 15 min at 25 °C. The supernatant was quantified by ultra-high-performance liquid chromatography (UHPLC) using single-point calibration of a known concentration of the compound in DMSO. The experiment was performed in triplicate.

Where [2] appears, read: REMA, 7 days + 48 h resazurin, read-out: MIC.
The mark [3] stands for this setting: converted from µg/mL, read-out: MIC (equivalent).

The term melting point denotes the temperature of the solid-liquid transition. In general, MIC refers to the smallest concentration in the dilution series that meets the test's criterion for growth inhibition. The term viability denotes a read-out of living cells in per cent, often relative to untreated cells. Broadly, the solubility is how much of the substance goes into solution per volume. Read a high solubility as a readily soluble substance.

T1 sequence (P9WNC5 whole entry): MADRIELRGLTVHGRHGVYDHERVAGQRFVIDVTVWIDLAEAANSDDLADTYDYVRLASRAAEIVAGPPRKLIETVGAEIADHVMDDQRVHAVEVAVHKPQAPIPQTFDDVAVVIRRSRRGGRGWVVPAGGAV

Regarding `Nc1nc2[nH]c(SCC(=O)NCC3CCCCC3)nc2c(=O)[nH]1` [Compound 3l, 2-((2-amino-6-oxo-6,9-dihydro-1H-purin-8-yl)thio)-N-(cyclohexylmethyl)acetamide], the melting point is 262 to 263 °C (dec.).

As for `C[C@@H]1[C@H](NC(=O)CSc2nc3c(=O)[nH]c(N)nc3[nH]2)C[C@H]2C[C@@H]1C2(C)C` [Compound 3k, 2-((2-amino-6-oxo-6,9-dihydro-1H-purin-8-yl)thio)-N-((1S,2S,3R,5R)-2,6,6-trimethylbicyclo [3.1.1]heptan-3-yl)acetamide], the melting point was 289 to 291 °C (dec.).

In the case of `Nc1nc2[nH]c(SCC(=O)Nc3cccc4c3CCCC4)nc2c(=O)[nH]1` [Compound 3e, 2-((2-amino-6-oxo-6,9-dihydro-1H-purin-8-yl)thio)-N-(5,6,7,8-tetrahydronaphthalen-1-yl)acetamide], the melting point is 260 to 261 °C (dec.). Moreover, on MtFolB, the Inhibition mode result is “Non-competitive”; the “Kii DHNP” value is 6.3 µM and 6.3 ± 1.2 µM; the Ki was found to be 1400 ± 300 nM. For the same compound, the MIC in data set [1] (setting [2]) came out at 40 µg/mL. Also, the MIC in data set [1] (setting [3]) turned out to be 108 µM. For the same compound, in “in vitro” (African green monkey), the viability at 72 h, 75 µM came out at 115 ± 2%; the viability at 72 h, 87.5 µM was found to be 94 ± 10%; the viability at 72 h, 100 µM came to 94 ± 3%. In the data set “in vitro” (human), the viability at 72 h, 75 µM was determined as 108 ± 3%; the viability at 72 h, 87.5 µM was determined as 97 ± 2%; the viability at 72 h, 100 µM is 96 ± 2%. For the same compound, the toxicity result in the data set with HepG2 cells is listed as “no apparent toxicity”. The “% of cell viability ± SEM” value in the data set with HepG2 cells (75 µM) amounted to 100 ± 6%. Besides, in the data set with HepG2 cells (87.5 µM), the “% of cell viability ± SEM” value amounted to 111 ± 3%. The “% of cell viability ± SEM” value in the data set with HepG2 cells (100 µM) is on record as 104 ± 2%. The toxicity result in the data set with Vero cells is recorded as “no apparent toxicity”. The “% of cell viability ± SEM” value in the data set on Vero cells (75 µM) is given as 96 ± 1%. Besides, the “% of cell viability ± SEM” value in the data set with Vero cells (87.5 µM) is recorded as 102 ± 3%. Also, in the data set on Vero cells (100 µM), the “% of cell viability ± SEM” value was found to be 96 ± 2%. Further, the solubility at 4 h in the data set “physchem” (pH 1.2, simulated gastric fluid) was 612 µM (≈ 227 µg/mL). In the data set “physchem” (pH 7.4, aqueous buffer), this compound yielded a solubility at 4 h of 1.1 µM (≈ 0.407 µg/mL). Besides, the solubility at 4 h in the data set “physchem” (pH 9.1, aqueous buffer) was found to be 37.6 µM (≈ 13.9 µg/mL).

Take `Nc1nc2[nH]c(SCC(=O)Nc3ccc4c(c3)CCCC4)nc2c(=O)[nH]1` [Compound 3d, 2-((2-amino-6-oxo-6,9-dihydro-1H-purin-8-yl)thio)-N-(5,6,7,8-tetrahydronaphthalen-2-yl)acetamide]: the melting point was 294 to 295 °C (dec.). Moreover, on MtFolB, the Inhibition mode entry is reported as “Competitive” and the Ki stood at 200 ± 50 nM.

Turning to `C[C@H](NC(=O)CSc1nc2c(=O)[nH]c(N)nc2[nH]1)C1CCCCC1` [Compound 3m, (S)-2-((2-amino-6-oxo-6,9-dihydro-1H-purin-8-yl)thio)-N-(1-cyclohexylethyl)acetamide], the melting point is 294 to 296 °C (dec.).

Turning to `CN(C(=O)CSc1nc2c(=O)[nH]c(N)nc2[nH]1)C1CCCCC1` [Compound 3j, 2-((2-amino-6-oxo-6,9-dihydro-1H-purin-8-yl)thio)-N-cyclohexyl-N-methylacetamide], the melting point is 272 to 274 °C (dec.).

For the compound `Nc1nc2[nH]c(SCC(=O)NC3CCCCCC3)nc2c(=O)[nH]1` [Compound 3f, 2-((2-amino-6-oxo-6,9-dihydro-1H-purin-8-yl)thio)-N-cycloheptylacetamide], the melting point is 292 to 294 °C (dec.).

For the compound `C[C@@H](NC(=O)CSc1nc2c(=O)[nH]c(N)nc2[nH]1)C1CCCCC1` [Compound 3n, (R)-2-((2-amino-6-oxo-6,9-dihydro-1H-purin-8-yl)thio)-N-(1-cyclohexylethyl)acetamide], the melting point is 289 to 291 °C (dec.).

In the case of `Nc1nc2[nH]c(SCC(=O)Nc3ccc(C(=O)N4CCCC4)cc3)nc2c(=O)[nH]1` [Compound 3c, 2-((2-amino-6-oxo-6,9-dihydro-1H-purin-8-yl)thio)-N-(4-(pyrrolidine-1-carbonyl)phenyl)acetamide], the melting point was 237 to 239 °C (dec.). Further, on MtFolB, the Inhibition mode result is given as “Non-competitive”; the “Kii DHNP” value is 1.5 µM and 1.5 ± 0.9 µM; the Ki is 300 ± 200 nM.

With `Nc1nc2[nH]c(SCC(=O)Nc3ccc(N4CCCCC4)cc3)nc2c(=O)[nH]1` [Compound 3a, 2-((2-amino-6-oxo-6,9-dihydro-1H-purin-8-yl)thio)-N-(4-(piperidin-1-yl)phenyl)acetamide], the melting point was 258 to 260 °C (dec.). In addition, at MtFolB, the Inhibition mode result is recorded as “Competitive” and the Ki is 400 ± 100 nM.

As to `NNC(=O)c1ccncc1` [INH, Isoniazid], the MIC in data set [1] (setting [2]) came to 0.31 µg/mL; in data set [1] (setting [3]), 2.3 µM.

Regarding `CC1CCC(NC(=O)CSc2nc3c(=O)[nH]c(N)nc3[nH]2)CC1` (centres unmarked) [Compound 3g, 2-((2-amino-6-oxo-6,9-dihydro-1H-purin-8-yl)thio)-N-(4-methylcyclohexyl)acetamide], the melting point is 282 to 284 °C (dec.).

Turning to `Nc1nc2[nH]c(SCC(=O)NC3CCCC3)nc2c(=O)[nH]1` [Compound 3h, 2-((2-amino-6-oxo-6,9-dihydro-1H-purin-8-yl)thio)-N-cyclopentylacetamide], the melting point is 280 to 282 °C (dec.).

Consider `Nc1nc2[nH]c(SCC(=O)Nc3ccc(N4CCOCC4)cc3)nc2c(=O)[nH]1` [Compound 3b, 2-((2-amino-6-oxo-6,9-dihydro-1H-purin-8-yl)thio)-N-(4-morpholinophenyl)acetamide], for which the melting point is 326 to 328 °C (dec.). Also, at MtFolB, the Inhibition mode entry is “Competitive” and the Ki came out at 300 ± 80 nM.

For the compound `Nc1nc2[nH]c(SCC(=O)NC3CCC3)nc2c(=O)[nH]1` [Compound 3i, 2-((2-amino-6-oxo-6,9-dihydro-1H-purin-8-yl)thio)-N-cyclobutylacetamide], the melting point was 285 to 287 °C (dec.).
